Structures are written as SMILES.

Data on three molecules can be found in patent US9346767B2, “Substituted pyrazines and a process for producing the same” (JNC CORPORATION, priority 2011, dated 2016).

The target of experiment [1] is T1, Renilla luciferase-547 (Renilla reniformis, UniProt P27652, A123S/A143M/A55T/C124A/D154A/D162E/E155G/F262W/I163V/K136R/M185V/M253L/S130A/S287L).
T1 construct: His6 with pCold-II leader (MNHKVHHHHHHMELG...) (N); made in house; host or cells: Escherichia coli BL21
T1 sequence (P27652 other isoform, or with tags, fused parts or gaps with the stated changes): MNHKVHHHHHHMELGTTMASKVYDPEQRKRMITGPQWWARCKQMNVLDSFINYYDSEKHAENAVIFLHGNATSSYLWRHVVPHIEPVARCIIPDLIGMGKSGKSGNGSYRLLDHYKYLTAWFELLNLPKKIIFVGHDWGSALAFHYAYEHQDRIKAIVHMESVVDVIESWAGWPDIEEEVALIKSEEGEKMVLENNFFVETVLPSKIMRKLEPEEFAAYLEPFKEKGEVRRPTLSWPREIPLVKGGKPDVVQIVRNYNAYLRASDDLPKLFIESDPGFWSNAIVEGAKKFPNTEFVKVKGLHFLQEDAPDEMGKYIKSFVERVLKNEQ
The experiment is described as follows: Measurement of emission spectrum with Renilla luciferase-547. The note with it: Renilla luciferase-547, 5 μg substrate, 50 mM Tris-HCl (pH 7.6)-10 mM EDTA, 22-25° C. Format: biochemical. As to the method:
(§1) The luminescence reaction was initiated by adding luciferase to 1 mL of 50 mM Tris-HCl (pH 7.6)-10 mM EDTA containing 5 μg (1 μg/μL) of substrate coelenterazine or ν-coelenterazine dissolved in ethanol. The protein amounts of luciferases used were Renilla luciferase: 1.5 μg and Renilla luciferase-547: 7.2 μg in the case of coelenterazine as substrate. On the other hand, the protein amounts in ν-coelenterazine as substrate were Renilla luciferase: 14.7 μg and Renilla luciferase-547: 35.8 μg. Luminescence spectra were measured in a quartz cell with a 10 mm optical path under the conditions of band width: 20 nm, sensitivity: medium, scan speed: 2000 nm/min and 22-25° C., using a fluorescence spectrophotometer FP-6500 (manufactured by JASCO) with the excitation light source turned off.

Experiment [2] has as its target T2, Renilla luciferase (Renilla reniformis, UniProt P27652).
T2 sequence (P27652 1-311): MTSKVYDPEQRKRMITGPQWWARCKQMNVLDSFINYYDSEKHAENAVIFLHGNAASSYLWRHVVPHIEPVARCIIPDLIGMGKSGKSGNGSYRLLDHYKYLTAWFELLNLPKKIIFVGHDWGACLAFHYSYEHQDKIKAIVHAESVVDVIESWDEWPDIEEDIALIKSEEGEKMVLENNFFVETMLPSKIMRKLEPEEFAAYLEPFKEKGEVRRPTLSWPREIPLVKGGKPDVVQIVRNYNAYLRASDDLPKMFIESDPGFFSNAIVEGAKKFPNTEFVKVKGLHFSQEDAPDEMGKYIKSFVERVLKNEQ
As to the kind of experiment: Measurement of luminescence activity with Renilla luciferase. The class given is biochemical. Details: His tag (from vector pCold-II; inferred from the nickel-chelate purification and the vector) (N); made in house; host or cells: Escherichia coli BL21. To be noted: Renilla luciferase 2.94 ng, 0.05 μg substrate, 30 mM Tris-HCl (pH 7.6)-10 mM EDTA; relative to coelenterazine. On the procedure: After Renilla luciferase (2.94 ng) or Renilla luciferase-547 (14.3 ng) was dispensed into a 96-well microplate (manufactured by Nunc) in an amount of 10 μL/well, 0.1 mL of 30 mM Tris-HCl (pH 7.6)-10 mM EDTA containing 0.05 μg of coelenterazine or ν-coelenterazine was injected into the wells thereby to initiate the luminescence reaction, and the luminescence intensity was measured using a luminescence plate reader Centro LB960 (manufactured by Berthold). The luminescence intensity was measured for 60 seconds 3 times in 0.1 second intervals, and the maximum luminescence intensity (Imax) and the mean (rlu) from luminescence integrated for 60 seconds were expressed in terms of relative activity (%) (TABLE 2).

For experiment [3], the target named is T2, Renilla luciferase. As to the kind of experiment: Measurement of emission spectrum with Renilla luciferase. Format: biochemical. Details: His tag (from vector pCold-II; inferred from the nickel-chelate purification and the vector) (N); made in house; host or cells: Escherichia coli BL21. The note with it: for Emission Maximum λmax / Emission spectrum half bandwidth: Renilla luciferase, 5 μg substrate, 50 mM Tris-HCl (pH 7.6)-10 mM EDTA, 22-25° C.; for shift of maximum emission wavelength (in words): summary of EXAMPLES, Renilla luciferase and Renilla luciferase-547. As to the method:
as §1

Experiment [4] addresses T2, Renilla luciferase. The note with it: substrate for Renilla luciferase, cited from earlier work.

With `O=c1c(Cc2ccc(O)cc2)nc2c(Cc3ccccc3)[nH]c(-c3ccc(O)cc3)cn1-2` [Coelenterazine, coelenterazine, reference compound], in experiment [1], the “Emission Maximum λmax” value worked out at 547.0 nm and the “Emission spectrum half bandwidth” value is listed as 124 nm. Also, in experiment [2], the “Luminescence integrated for 60 seconds (Int.), relative activity” value (from here on “Luminescence integrated … relative activity”) is on record as 100 (100) % and the “Maximum Luminescence Intensity Imax, relative activity” value was 100 (100) %. Besides, in experiment [3], the “Emission Maximum λmax” value is on record as 485.0 nm and the “Emission spectrum half bandwidth” value was found to be 95 nm.

For `O=c1c(Cc2ccc(C(F)(F)F)cc2)nc2c(Cc3ccccc3)[nH]c3c4ccc(O)cc4ccc3n1-2` [cf3-v-Coelenterazine, cf3-ν-coelenterazine], in experiment [1], the “Emission Maximum λmax” value stood at 599.0 nm and the “Emission spectrum half bandwidth” value is listed as 132 nm. In addition, in experiment [2], the “Luminescence integrated … relative activity” value is 12.3% and the “Maximum Luminescence Intensity Imax, relative activity” value is given as 18.9%. Besides, in experiment [3], the “Emission Maximum λmax” value amounted to 525.5 nm, the “Emission spectrum half bandwidth” value is 121 nm and the “shift of maximum emission wavelength (in words)” value is “shifted toward a longer wavelength side even relative to ν-coelenterazine”.

Take `O=c1c(Cc2ccc(O)cc2)nc2c(Cc3ccccc3)[nH]c3c4ccc(O)cc4ccc3n1-2` [v-Coelenterazine, ν-Coelenterazine]: in experiment [1], the “Emission Maximum λmax” value was 593.0 nm and the “Emission spectrum half bandwidth” value was 130 nm. The “part of emission spectrum distribution reaching the near-infrared region (>700 nm)” value in experiment [4] is on record as about 5%. Moreover, in experiment [4] (from 475 nm), the “shift of maximum emission wavelength toward the longer wavelength side” value is “about 40 nm”. In addition, in experiment [4] (green emission), the maximum emission wavelength is 512 nm. Further, in experiment [2], the “Luminescence integrated … relative activity” value came to 47.3% and the “Maximum Luminescence Intensity Imax, relative activity” value worked out at 71.8%. Also, in experiment [3], the “Emission Maximum λmax” value is 519.0 nm, the “Emission spectrum half bandwidth” value was determined as 105 nm and the “shift of maximum emission wavelength (in words)” value is listed as “shifted toward a longer wavelength side relative to coelenterazine”.
